We go through 22 compounds from patent US12234205B1, “Sulfonylhydrazide derivatives as anticancer agents” (KING SAUD UNIVERSITY, priority 2024, dated 2025).

One assay addresses T1, hFAAH (Homo sapiens, UniProt O00519).
T1 construct: purchased Cayman Chemicals 10005196
T1 sequence (O00519 1-579): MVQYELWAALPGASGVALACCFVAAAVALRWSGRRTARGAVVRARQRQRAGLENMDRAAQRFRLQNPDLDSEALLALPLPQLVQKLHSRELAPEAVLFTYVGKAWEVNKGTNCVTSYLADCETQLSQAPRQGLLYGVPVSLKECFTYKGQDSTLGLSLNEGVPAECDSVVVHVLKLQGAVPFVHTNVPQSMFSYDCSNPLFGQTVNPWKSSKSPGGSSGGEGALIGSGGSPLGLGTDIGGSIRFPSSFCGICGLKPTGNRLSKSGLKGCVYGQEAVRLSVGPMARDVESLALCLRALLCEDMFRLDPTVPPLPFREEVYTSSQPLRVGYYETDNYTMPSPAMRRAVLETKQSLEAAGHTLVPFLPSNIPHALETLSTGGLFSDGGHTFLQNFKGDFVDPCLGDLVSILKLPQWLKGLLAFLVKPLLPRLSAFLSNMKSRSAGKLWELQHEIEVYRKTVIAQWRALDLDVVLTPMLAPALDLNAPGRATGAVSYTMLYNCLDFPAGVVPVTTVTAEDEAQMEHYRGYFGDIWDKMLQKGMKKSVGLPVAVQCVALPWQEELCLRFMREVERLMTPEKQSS
The assay can be described thus: Inhibition of FAAH activity (Cayman FAAH inhibitor screening assay kit, AMC-arachidonoyl amide hydrolysis, fluorescence). Type of assay: biochemical. As to conditions: 30 min preincubation; for inhibition at 10 µM: 10 μM compound, 37° C., triplicate; for pIC50: only compounds with more than 50% inhibition at 10 μM. As for the experimental part: Inhibition of FAAH Activity
Assay was performed using kits (#10005196) purchased from Cayman Chemicals (Anne Arbor, MI, USA). Ibuprofen was acquired as a generous gift from Tabuk Pharmaceuticals (Tabuk, SA). Doxorubicin was purchased from Sigma (St. Luis, MI, USA). Assay was performed using the FAAH inhibitor screening assay kit from Cayman Chemicals according to the manufacturer's protocol. Release of the fluorescent product, 7-amino-4-methylcoumarin (AMC), from the hydrolysis of AMC-arachidonoyl amide, mediated by FAAH at 37° C., was recorded using a plate reader with an excitation filter of 340-360 nm and an emission filter of 450-465 nm. Inhibitors were preincubated for 30 min at indicated concentrations with the enzyme prior to the addition of substrate to initiate the reaction. Change in fluorescence with time was taken as enzyme activity and the extent of inhibition was calculated from the initial rates. Final DMSO concentration was kept at 2% (v/v) in the assay. Each concentration was repeated three times (Triplicate) to conform to statistical accuracy. Percentage of inhibition at 10 μM was measured for all compounds. Compounds which were able to inhibit the enzyme activity more than 50% at 10 μM were considered eligible for IC50 calculations. For IC50, the inhibition assay was performed at 1.0, 0.1, 0.01, 0.001 and 0.0001 μM concentration of compound under assay. The hFAAH inhibition was calculated as compared to activity observed with vehicle. IC50 values were calculated using Prism v.7.02 for each column separately (singlet concentration). The compound's IC50 was calculated using InStat v.3 software (GraphPad Software, San Diego, CA) which was also used for calculation of standard error of means (SEM). Referring to FIG. 1, inhibition of hFAAH by compound 10 is shown.
(§1) IC50 is the concentration at which 50% of the cells were inhibited after treatment with a target compound. SEM is the standard error of means.

The next assay deals with A549 NSCLC cell line. The assay is described as follows: Inhibition of A549 NSCLC cell line (sulforhodamine B assay, 72 h). Type of assay: cell-based. The note with it: Homo sapiens, SRB assay, 72 hours exposure. As for the experimental part:
as §1
Inhibition of A549 NSCLS (Non-Small Cells Lung Cancer) Cell Line
A549 cell lines were obtained from the National Cancer Institute (Cairo, Egypt) and maintained in Roswell Park Memorial Institute medium (RPMI1640) (Invitrogen, Carlsbad, CA, USA) supplemented with […] of streptomycin, 100 units/mL of penicillin and 10% of heat-inactivated fetal bovine serum (Invitrogen) in a humidified, 5% (v/v) CO2 atmosphere at 37° C. The sulforhodamine B (SRB) assays were performed according to Skehan et al 20, 21. Briefly, exponentially growing cells were trypsinized, counted and seeded at the appropriate densities (5000 cells/100 μL/well) into 96-well microtiter plates. Cells were incubated in a humidified atmosphere at 37° C. for 24 h. Then, the cells were exposed to different compounds at the desired concentrations, (0.01, 0.03, 0.1, 0.3, 1, 3, 10, 30 and 100 μM) or to 1% dimethyl sulfoxide (DMSO) for 72 hours. At the end of the treatment period, the media were removed, and the cells were fixed with 10% trichloroacetic acid at 4° C. for 1 h. The cells then were washed with tap water four times and incubated with SRB 0.4% for 30 min. Excess dye was removed by washing repeatedly with 1% (vol/vol) acetic acid. The protein-bound dye was dissolved in 10 mM Tris base solution for OD determination at 510 nm using a SpectraMax plus Microplate Reader (Molecular Devices, CA). Cell viability was expressed relative to the untreated control cells. Statistical analyses were performed using legally licensed GraphPad Prism™ and Instat™ software (GraphPad Inc., La Jolla, CA, USA).
On the technique in general: The SRB assay estimates cell density from bound dye.

pIC50: −log10 of the molar value.

The term inhibition denotes the change of the read-out against control, counted positive when it falls. The low end stands for a weak effect, the high end for a strong effect. One may read the pIC50 as the negative decadic logarithm of the IC50, by convention in mol/L. A high value points to a small IC50. In turn, `CC(=O)c1ccc(S(=O)(=O)NNC(=O)C(C)c2ccc(CC(C)C)cc2)cc1` (stereo not drawn) [Compound 1, 4-acetyl-N′-(2-(4-isobutylphenyl)propanoyl)benzenesulfonohydrazide] yielded an inhibition at 10 µM at hFAAH of 33.6%. Besides, in the assay with A549 NSCLC cell line, the pIC50 was less than 4.00.
On hFAAH, `Cc1ccc(S(=O)(=O)NNC(=O)C(C)c2ccc(CC(C)C)cc2)cc1` (stereo not drawn) [Compound 2, N′-(2-(4-isobutylphenyl)propanoyl)-4-methylbenzene sulfonohydrazide] had an inhibition at 10 µM of 63.5% and a pIC50 of 5.84. In the assay on A549 NSCLC cell line, this compound gave a pIC50 of less than 4.00.
In turn, `CC(C)Cc1ccc(C(C)C(=O)NNS(=O)(=O)c2ccccc2[N+](=O)[O-])cc1` (stereo not drawn) [Compound 3, N′-(2-(4-isobutylphenyl)propanoyl)-2-nitrobenzenesulfonohydrazide] had an inhibition at 10 µM on hFAAH of 45.5%. The compound also gave a pIC50 in the assay on A549 NSCLC cell line of 4.25.
In the case of `CC(C)Cc1ccc(C(C)C(=O)NNS(=O)(=O)c2ccc3ccccc3c2)cc1` (stereo not drawn) [Compound 4, N′-(2-(4-isobutylphenyl)propanoyl)naphthalene-2-sulfonohydrazide], at hFAAH, the inhibition at 10 µM was found to be 87.8% and the negative logarithm of the IC50 (pIC50) is 6.75. The compound further showed a pIC50 in the assay with A549 NSCLC cell line of 4.28.
For the compound `CC(C)Cc1ccc(C(C)C(=O)NNS(=O)(=O)c2c(C(C)C)cc(C(C)C)cc2C(C)C)cc1` (stereo not drawn) [Compound 5, N′-(2-(4-isobutylphenyl)propanoyl)-2,4, 6 triisopropyl benzene sulfonohydrazide], on hFAAH, at 10 µM the inhibition was 8.85%. In the assay on A549 NSCLC cell line, this compound showed a pIC50 of 4.14.
In the same order, the values of `CC(C)Cc1ccc(C(C)C(=O)NNS(=O)(=O)C(Br)c2ccccc2)cc1` (stereo not drawn) [Compound 6, 1-Bromo-N′-(2-(4-isobutylphenyl)propanoyl)-1-phenylmethane sulfonohydrazide] are 20.6% and less than 4.00.
The compound `CC(C)Cc1ccc(C(C)C(=O)NNS(=O)(=O)c2cccc(C(F)(F)F)c2)cc1` (stereo not drawn) [Compound 7, N′-(2-(4-isobutylphenyl)propanoyl)-3-(trifluoromethyl) benzene sulfonohydrazide] gave an inhibition at 10 µM against hFAAH of 36.1%. The compound also had a pIC50 in the assay on A549 NSCLC cell line of less than 4.00.
At hFAAH, `CC(C)Cc1ccc(C(C)C(=O)NNS(=O)(=O)c2ccc(C(F)(F)F)cc2)cc1` (stereo not drawn) [Compound 8, N′-(2-(4-isobutylphenyl)propanoyl)-4-(trifluoromethyl) benzene sulfonohydrazide] gave an inhibition at 10 µM of 74% and a negative logarithm of the IC50 (pIC50) of 5.92. In addition, the pIC50 with A549 NSCLC cell line is 4.40.
In the same order, the values of `CC(C)Cc1ccc(C(C)C(=O)NNS(=O)(=O)c2ccccc2)cc1` (stereo not drawn) [Compound 9, N′-(2-(4-isobutylphenyl)propanoyl) benzenesulfonohydrazide] are 99.9%, 6.84 and 4.33.
For `CC(C)Cc1ccc(C(C)C(=O)NNS(=O)(=O)c2ccc(-c3ccccc3)cc2)cc1` (stereo not drawn) [Compound 10, N′-(2-(4-isobutylphenyl)propanoyl)-[1, 1′-biphenyl]-4-sulfonohydrazide], in that order: 98.1%, 8.25 and 6.54.
In the same order, the values of `Cc1ccc(-c2ccc(S(=O)(=O)NNC(=O)C(C)c3ccc(CC(C)C)cc3)cc2)cc1` (stereo not drawn) [Compound 11, N′-(2-(4-isobutylphenyl)propanoyl)-4′-methyl-[1, 1′-biphenyl]-4-sulfonohydrazide] are 95.3%, 7.14 and 4.80.
At hFAAH, `COc1ccc(-c2ccc(S(=O)(=O)NNC(=O)C(C)c3ccc(CC(C)C)cc3)cc2)cc1` (stereo not drawn) [Compound 12, N′-(2-(4-isobutylphenyl)propanoyl)-4′-methoxy-[1, 1′-biphenyl]-4sulfonohydrazide] registered an inhibition at 10 µM of 99%. In addition, the negative logarithm of the IC50 (pIC50) on hFAAH was 6.85; with A549 NSCLC cell line it was 4.93.
Turning to `CC(C)Cc1ccc(C(C)C(=O)NNS(=O)(=O)c2ccc(Br)cc2)cc1` (stereo not drawn) [Compound 13, 4-Bromo-N′-(2-(4-isobutylphenyl)propanoyl)benzenesulfonohydrazide], at 10 µM the inhibition against hFAAH was 48.7%. The compound further had a pIC50 in the assay with A549 NSCLC cell line of less than 4.00.
In the same order, the values of `COc1ccc(S(=O)(=O)NNC(=O)C(C)c2ccc(CC(C)C)cc2)cc1OC` (stereo not drawn) [Compound 14, N′-(2-(4-isobutylphenyl)propanoyl)-3,4-dimethoxybenzene sulfonohydrazide] are 23.8% and less than 4.00.
As to `CC(C)Cc1ccc(C(C)C(=O)NNS(=O)(=O)c2cccs2)cc1` (stereo not drawn) [Compound 15, N′-(2-(4-isobutylphenyl)propanoyl)thiophene-2-sulfonohydrazide], at hFAAH, 10 µM produced 86.5% inhibition. The pIC50 is 6.17 against hFAAH and less than 4.00 with A549 NSCLC cell line.
`CC(C)Cc1ccc(C(C)C(=O)NNS(=O)(=O)c2ccc(Br)s2)cc1` (stereo not drawn) [Compound 16, 5-Bromo-N′-(2-(4-isobutylphenyl)propanoyl) thiophene-2-sulfonohydrazide] gave an inhibition at 10 µM against hFAAH of 28.4%. In the assay with A549 NSCLC cell line, the pIC50 was less than 4.00.
`Cc1ccc(S(=O)(=O)NNC(=O)C(C)c2ccc(CC(C)C)cc2)s1` (stereo not drawn) [Compound 17, N′-(2-(4-isobutylphenyl)propanoyl)-5-methylthiophene-2-sulfonohydrazide]: the inhibition at 10 µM on hFAAH amounted to 7.44%. This compound gave a pIC50 in the assay on A549 NSCLC cell line of less than 4.00.
At hFAAH, `CC(C)Cc1ccc(C(C)C(=O)NNS(=O)(=O)c2cccnc2)cc1` (stereo not drawn) [Compound 18, N′-(2-(4-isobutylphenyl)propanoyl)pyridine-3-sulfonohydrazide] gave an inhibition at 10 µM of 58.6% and a pIC50 of 5.40. The pIC50 in the assay on A549 NSCLC cell line is less than 4.00.
At hFAAH, `CC(C)Cc1ccc(C(C)C(=O)NNS(=O)(=O)c2ccc(C(F)(F)F)nc2)cc1` (stereo not drawn) [Compound 19, N′-(2-(4-isobutylphenyl)propanoyl)-6-(trifluoromethyl)pyridine-3sulfonohydrazide] had an inhibition at 10 µM of 40.5%. The compound further had a pIC50 in the assay on A549 NSCLC cell line of less than 4.00.
For `CC(C)Cc1ccc(C(C)C(=O)NNS(=O)(=O)Cc2ccccc2)cc1` (stereo not drawn) [Compound 20, N′-(2-(4-isobutylphenyl)propanoyl)-1-phenylmethanesulfonohydrazide], 10 µM produced 44.2% inhibition on hFAAH. Besides, the pIC50 in the assay with A549 NSCLC cell line is less than 4.00.
Take `COc1cccc2c1C(=O)c1c(O)c3c(c(O)c1C2=O)C[C@@](O)(C(=O)CO)C[C@@H]3O[C@H]1C[C@H](N)[C@H](O)[C@H](C)O1` [Doxorubicin, reference compound]: the pIC50 in the assay with A549 NSCLC cell line was 5.64.
`CC(C)Cc1ccc(C(C)C(=O)O)cc1` (stereo not drawn) [Ibuprofen, reference compound] displayed an inhibition at 10 µM against hFAAH of 10%.
